The target in the assay is T1, ΔDBD-PPARα (Mus musculus, UniProt P23204, C119A/C122A).
T1 construct: expressed in transfected cells; host or cells: liver of chow-fed WT mice on a PPARα null background, infected with AdFLAG-ΔDBD PPARα adenovirus
T1 sequence (P23204 1-468 C119A/C122A): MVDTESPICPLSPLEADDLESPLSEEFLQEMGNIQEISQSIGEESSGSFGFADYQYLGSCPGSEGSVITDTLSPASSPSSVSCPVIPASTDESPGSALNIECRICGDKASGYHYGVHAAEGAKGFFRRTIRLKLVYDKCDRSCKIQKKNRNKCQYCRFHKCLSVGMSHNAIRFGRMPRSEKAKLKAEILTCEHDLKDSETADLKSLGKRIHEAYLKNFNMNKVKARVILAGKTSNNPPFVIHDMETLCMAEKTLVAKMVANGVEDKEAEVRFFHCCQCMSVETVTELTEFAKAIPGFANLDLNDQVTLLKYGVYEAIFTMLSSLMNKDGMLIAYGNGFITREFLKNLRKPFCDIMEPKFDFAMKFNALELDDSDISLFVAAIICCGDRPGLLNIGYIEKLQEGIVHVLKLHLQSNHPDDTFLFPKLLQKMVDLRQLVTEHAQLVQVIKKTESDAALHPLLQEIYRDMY
Nature of the assay: In vivo competitive inhibition with PPARα having a defective DNA binding domain. The settings on record: 50 μg/g intraperitoneal; chow fed WT mice on PPARα null background with AdFLAG-ΔDBD PPARα; 0-60 min. The source says:
Adenovirus encoding both FLAG®-tagged wild type mouse PPARα and a GFP marker, and an adenovirus encoding GFP alone were gifts from T. C. Leone and D. P. Kelly. The AdPPARα virus is known to result in expression of a protein that transactivates PPARα target genes (Bernal-Mizrachi et al., 2003; Tordjman et al., 2002). The DNA binding domain (DBD) mutant of PPARα was generated by mutating the two highly conserved cysteine residues (Shi et al., 2002) to alanine (C119A, C122A) using site-directed mutagenesis (QuikChange® kit, Stratagene). The DBD mutant was subcloned into the pCMV-TAG1 vector (Stratagene) to acquire a FLAG® tag, then shuttled into pAdTrack-CMV vector encoding a GFP marker and recombined with Ad-Easy1 vector. The pAdTrack-CMV and pAdEasy-1 vectors were gifts from the laboratory of B. Vogelstein. […]
To address the concern that lipid loss could represent Wy14,643-accelerated metabolism as opposed to displacement of the ligand, 1-palmitoyl-2-oleoyl-sn-glycerol-3-phosphocholine (16:0/18:1-GPC) from its binding site on PPARα, an in vivo competitive inhibition experiment using a PPARα molecule with a defective DNA binding domain (see FIG. 5A) was employed. […] Quantification of the relative abundance of the m/z 766 ion in response to Wy14,643 administration in WT mice on a PPARα null background injected with AdFLAG-^ΔDBD PPARα adenovirus is shown in FIG. 5M. […]

Regarding `Cc1cccc(Nc2cc(Cl)nc(SCC(=O)O)n2)c1C` [Wy14,643, 4-Chloro-6-(2,3-xylidino)-2-pyrimidinylthioacetic acid], the “displacement of m/z 766 (16:0/18:1-GPC) from ΔDBD-PPARα” value is given as “competed away from ΔDBD-PPARα within minutes”.

Source of the values: US8337835B2, “Use of an endogenous ligand for peroxisome proliferator activated receptor alpha to treat liver disorders” (priority 2009, dated 2012).
